The values that follow come from publication PMC5428509, “Irreversible inhibition of BTK kinase by a novel highly selective inhibitor CHMFL-BTK-11 suppresses inflammatory response in rheumatoid arthritis model” (Scientific Reports, 2017).

Holding throughout (test): biochemical
Design in all cases: KinomeScan competition binding panel (DiscoveRx), percent of control at 1 uM
Conditions in all cases: read-out: Percent Control

For test [1], the target named is BRSK2 (Homo sapiens, UniProt Q8IWQ3). The essentials:
(§1)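 Selectivity profiled across 456 kinases/mutants by KinomeScan binding technology.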

Test [2] addresses T1, PRKR (Homo sapiens, UniProt P19525).
T1 construct: gene EIF2AK2
In outline:
as §1

The target in test [3] is HIPK2 (Homo sapiens, UniProt Q9H2X6). In outline: as §1
Test [4] addresses T2, ASK1 (Homo sapiens, UniProt Q99683).
T2 construct: gene MAP3K5
The essentials:
as §1

Test [5] concerns the target T3, MRCKA (Homo sapiens, UniProt Q5VT25).
T3 construct: gene CDC42BPA
In outline: as §1

Test [6] has as its target CAMK2D (Homo sapiens, UniProt Q13557). The essentials: as §1
Test [7] deals with EGFR(G719C) (Homo sapiens, UniProt P00533, G719C). The essentials:
as §1

The target in test [8] is AURKA (Homo sapiens, UniProt O14965). In outline:
as §1

Test [9] has as its target PRKX (Homo sapiens, UniProt P51817). In outline:
as §1

The target in test [10] is SIK2 (Homo sapiens, UniProt Q9H0K1). In outline:
as §1

Test [11] deals with CSNK2A1 (Homo sapiens, UniProt P68400). The essentials: as §1
Test [12] addresses PIK3C2G (Homo sapiens, UniProt O75747). The essentials:
as §1

In test [13] the target is T4, PIK4CB (Homo sapiens, UniProt Q9UBF8).
T4 construct: gene PI4KB
The essentials: as §1

The target in test [14] is PRKG1 (Homo sapiens, UniProt Q13976). The essentials:
as §1

The target of test [15] is T5, MRCKB (Homo sapiens, UniProt Q9Y5S2).
T5 construct: gene CDC42BPB
The essentials: as §1

Test [16] concerns the target EPHA1 (Homo sapiens, UniProt P21709). The essentials: as §1
Test [17] addresses T6, RPS6KA4(Kin.Dom.2-C-terminal) (Homo sapiens, UniProt O75676).
T6 construct: Kin.Dom.2-C-terminal
The essentials: as §1

Test [18] has as its target PRKCQ (Homo sapiens, UniProt Q04759). The essentials:
as §1

Test [19] has as its target DYRK1B (Homo sapiens, UniProt Q9Y463). The essentials:
as §1

Test [20] concerns the target CDK7 (Homo sapiens, UniProt P50613). In outline:
as §1

For test [21], the target named is T7, RSK1(Kin.Dom.1-N-terminal) (Homo sapiens, UniProt Q15418).
T7 construct: gene RPS6KA1; Kin.Dom.1-N-terminal
In outline:
as §1

In test [22] the target is PRKCI (Homo sapiens, UniProt P41743). In outline:
as §1

The target in test [23] is T8, RSK2(Kin.Dom.2-C-terminal) (Homo sapiens, UniProt P51812).
T8 construct: gene RPS6KA3; Kin.Dom.2-C-terminal
In outline: as §1

In test [24] the target is ALK (Homo sapiens, UniProt Q9UM73). The essentials:
as §1

Sequence of CSNK2A1 (P68400 whole entry): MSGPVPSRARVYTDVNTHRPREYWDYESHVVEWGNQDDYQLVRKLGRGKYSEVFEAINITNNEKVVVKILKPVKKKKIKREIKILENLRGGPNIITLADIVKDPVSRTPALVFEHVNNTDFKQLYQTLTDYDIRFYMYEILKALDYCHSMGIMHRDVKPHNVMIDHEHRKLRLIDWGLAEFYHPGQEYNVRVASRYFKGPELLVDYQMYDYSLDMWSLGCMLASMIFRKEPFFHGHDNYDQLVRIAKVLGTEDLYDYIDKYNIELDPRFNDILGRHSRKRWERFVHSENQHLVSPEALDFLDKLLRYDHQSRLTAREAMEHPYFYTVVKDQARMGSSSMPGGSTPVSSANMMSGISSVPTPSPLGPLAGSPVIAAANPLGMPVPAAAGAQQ
T8 sequence (P51812 whole entry): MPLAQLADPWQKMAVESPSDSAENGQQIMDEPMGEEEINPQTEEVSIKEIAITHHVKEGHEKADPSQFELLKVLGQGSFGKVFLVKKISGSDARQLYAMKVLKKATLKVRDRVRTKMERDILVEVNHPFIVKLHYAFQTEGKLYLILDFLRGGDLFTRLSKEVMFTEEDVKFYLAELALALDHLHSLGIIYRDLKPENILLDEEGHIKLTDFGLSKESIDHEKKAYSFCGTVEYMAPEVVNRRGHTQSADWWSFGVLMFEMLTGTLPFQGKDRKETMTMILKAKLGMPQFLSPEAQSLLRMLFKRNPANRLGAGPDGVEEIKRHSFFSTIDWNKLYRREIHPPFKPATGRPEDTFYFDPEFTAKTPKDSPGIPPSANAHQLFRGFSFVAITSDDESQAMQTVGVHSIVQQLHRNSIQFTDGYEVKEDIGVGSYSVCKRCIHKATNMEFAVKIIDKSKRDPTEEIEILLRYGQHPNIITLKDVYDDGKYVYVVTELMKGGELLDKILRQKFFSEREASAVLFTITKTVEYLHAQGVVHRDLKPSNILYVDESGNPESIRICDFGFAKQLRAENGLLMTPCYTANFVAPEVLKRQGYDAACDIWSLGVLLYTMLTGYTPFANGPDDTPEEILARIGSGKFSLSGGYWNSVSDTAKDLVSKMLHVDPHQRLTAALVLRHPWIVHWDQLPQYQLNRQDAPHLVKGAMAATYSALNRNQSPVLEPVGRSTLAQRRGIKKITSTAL
T7 sequence (Q15418 whole entry): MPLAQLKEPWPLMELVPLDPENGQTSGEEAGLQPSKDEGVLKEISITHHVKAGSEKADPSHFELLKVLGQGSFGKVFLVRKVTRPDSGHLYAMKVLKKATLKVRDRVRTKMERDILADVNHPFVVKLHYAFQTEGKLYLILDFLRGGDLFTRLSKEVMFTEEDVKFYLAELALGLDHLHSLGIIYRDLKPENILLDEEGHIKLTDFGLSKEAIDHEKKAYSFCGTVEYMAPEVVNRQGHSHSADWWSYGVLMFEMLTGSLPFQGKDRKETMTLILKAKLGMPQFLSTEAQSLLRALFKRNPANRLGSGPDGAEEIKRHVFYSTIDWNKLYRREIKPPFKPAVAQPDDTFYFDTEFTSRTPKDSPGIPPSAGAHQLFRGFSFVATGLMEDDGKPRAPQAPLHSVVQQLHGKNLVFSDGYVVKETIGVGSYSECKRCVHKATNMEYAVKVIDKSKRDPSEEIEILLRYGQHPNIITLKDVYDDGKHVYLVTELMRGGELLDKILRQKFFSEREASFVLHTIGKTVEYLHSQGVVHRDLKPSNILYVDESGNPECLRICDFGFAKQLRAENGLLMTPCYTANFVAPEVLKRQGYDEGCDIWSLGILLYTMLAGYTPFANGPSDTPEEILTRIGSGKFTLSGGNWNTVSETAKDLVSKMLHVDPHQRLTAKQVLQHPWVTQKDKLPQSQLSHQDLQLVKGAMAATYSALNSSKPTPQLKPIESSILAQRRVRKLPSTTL
Sequence of HIPK2 (Q9H2X6 whole entry): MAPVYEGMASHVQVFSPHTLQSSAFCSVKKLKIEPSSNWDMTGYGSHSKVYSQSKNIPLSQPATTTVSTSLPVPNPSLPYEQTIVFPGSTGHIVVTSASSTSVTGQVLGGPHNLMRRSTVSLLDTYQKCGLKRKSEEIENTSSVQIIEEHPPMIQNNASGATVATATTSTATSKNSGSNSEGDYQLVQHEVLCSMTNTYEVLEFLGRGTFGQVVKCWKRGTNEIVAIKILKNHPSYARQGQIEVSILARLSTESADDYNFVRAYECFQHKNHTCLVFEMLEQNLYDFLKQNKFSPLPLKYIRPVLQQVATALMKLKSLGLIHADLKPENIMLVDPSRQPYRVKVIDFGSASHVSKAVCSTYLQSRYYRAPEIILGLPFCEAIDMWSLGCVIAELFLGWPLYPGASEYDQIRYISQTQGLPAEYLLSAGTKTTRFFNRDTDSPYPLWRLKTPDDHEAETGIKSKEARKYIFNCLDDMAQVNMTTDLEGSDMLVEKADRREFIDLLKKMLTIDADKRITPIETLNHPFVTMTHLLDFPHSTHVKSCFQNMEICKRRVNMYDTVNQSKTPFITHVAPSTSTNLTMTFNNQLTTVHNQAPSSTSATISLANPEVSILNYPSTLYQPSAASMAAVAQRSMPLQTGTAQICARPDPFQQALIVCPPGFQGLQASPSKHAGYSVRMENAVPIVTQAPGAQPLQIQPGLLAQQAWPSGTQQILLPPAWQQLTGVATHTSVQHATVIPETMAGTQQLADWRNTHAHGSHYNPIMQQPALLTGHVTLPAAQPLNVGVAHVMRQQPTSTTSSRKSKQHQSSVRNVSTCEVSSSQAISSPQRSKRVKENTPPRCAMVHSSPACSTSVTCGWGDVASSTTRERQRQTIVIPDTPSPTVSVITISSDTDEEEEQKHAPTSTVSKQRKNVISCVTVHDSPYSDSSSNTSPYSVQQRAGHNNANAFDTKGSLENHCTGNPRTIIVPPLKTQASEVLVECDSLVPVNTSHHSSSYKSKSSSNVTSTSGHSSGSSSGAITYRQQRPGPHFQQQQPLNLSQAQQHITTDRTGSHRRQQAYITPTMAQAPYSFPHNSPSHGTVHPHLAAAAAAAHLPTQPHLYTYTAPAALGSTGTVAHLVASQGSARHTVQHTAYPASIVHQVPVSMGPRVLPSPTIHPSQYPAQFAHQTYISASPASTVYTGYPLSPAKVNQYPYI
T5 sequence (Q9Y5S2 whole entry): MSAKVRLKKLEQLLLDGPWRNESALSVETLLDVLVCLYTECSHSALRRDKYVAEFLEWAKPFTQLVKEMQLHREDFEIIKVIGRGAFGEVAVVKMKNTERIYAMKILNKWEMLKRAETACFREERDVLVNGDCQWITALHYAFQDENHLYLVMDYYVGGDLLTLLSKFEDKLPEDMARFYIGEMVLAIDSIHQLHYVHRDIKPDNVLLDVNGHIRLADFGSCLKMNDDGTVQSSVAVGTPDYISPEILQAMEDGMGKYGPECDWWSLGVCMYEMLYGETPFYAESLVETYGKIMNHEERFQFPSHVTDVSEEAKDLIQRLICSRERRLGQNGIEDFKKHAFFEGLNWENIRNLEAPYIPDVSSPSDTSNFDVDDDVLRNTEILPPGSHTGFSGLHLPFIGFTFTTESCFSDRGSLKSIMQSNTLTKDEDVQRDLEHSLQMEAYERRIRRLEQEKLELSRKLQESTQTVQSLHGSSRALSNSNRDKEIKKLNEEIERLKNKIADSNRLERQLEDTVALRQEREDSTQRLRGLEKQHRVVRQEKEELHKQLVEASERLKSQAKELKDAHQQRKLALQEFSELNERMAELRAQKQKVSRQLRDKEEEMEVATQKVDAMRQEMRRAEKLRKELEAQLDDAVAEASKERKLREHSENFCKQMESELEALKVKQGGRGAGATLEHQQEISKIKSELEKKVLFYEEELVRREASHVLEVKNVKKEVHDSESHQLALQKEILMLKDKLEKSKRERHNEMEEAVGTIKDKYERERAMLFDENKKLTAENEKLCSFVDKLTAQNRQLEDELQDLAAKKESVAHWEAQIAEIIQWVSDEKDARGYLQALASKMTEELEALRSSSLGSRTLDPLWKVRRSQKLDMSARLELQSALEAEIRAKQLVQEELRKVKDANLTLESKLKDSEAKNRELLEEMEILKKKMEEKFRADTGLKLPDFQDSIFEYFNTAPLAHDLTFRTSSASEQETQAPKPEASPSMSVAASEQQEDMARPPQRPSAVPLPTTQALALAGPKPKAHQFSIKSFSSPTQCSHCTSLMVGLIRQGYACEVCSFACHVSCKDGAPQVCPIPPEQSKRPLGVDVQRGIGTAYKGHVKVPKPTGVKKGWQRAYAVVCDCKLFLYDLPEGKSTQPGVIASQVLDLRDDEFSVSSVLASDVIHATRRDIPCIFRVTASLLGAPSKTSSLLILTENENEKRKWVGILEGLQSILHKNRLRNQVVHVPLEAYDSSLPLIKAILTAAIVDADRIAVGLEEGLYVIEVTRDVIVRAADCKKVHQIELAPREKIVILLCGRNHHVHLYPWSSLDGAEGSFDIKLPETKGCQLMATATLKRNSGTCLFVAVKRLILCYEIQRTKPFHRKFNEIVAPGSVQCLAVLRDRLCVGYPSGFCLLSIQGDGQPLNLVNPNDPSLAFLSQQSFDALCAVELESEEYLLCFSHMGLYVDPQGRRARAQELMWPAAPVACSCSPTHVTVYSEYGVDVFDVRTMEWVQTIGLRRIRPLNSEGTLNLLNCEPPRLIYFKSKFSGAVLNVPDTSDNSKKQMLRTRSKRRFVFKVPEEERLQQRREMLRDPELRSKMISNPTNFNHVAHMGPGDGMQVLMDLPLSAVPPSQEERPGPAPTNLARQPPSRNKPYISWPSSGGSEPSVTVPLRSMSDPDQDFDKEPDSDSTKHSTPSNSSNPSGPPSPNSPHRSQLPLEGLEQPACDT

Consider `C=CC(=O)Nc1cc(-n2c(=O)ccc3cnc4ccc(-n5cccn5)cc4c32)ccc1C` [CHMFL-BTK-11], for which the remaining binding at 1 µM in test [1] was determined as 86%; in test [2], 80%; in [3] it was 96%; in [4], 90%; in test [5], 100%; in test [6], 80%. Also, the remaining binding at 1 µM in [7] stood at 97%; in test [8] it was 71%; in test [9] it was 100%; in test [10], 98%; in test [11] it was 92%; in test [12], 95%. For the same compound, the remaining binding at 1 µM in test [13], in test [14], in [15], in test [16], in test [17] and in test [18] was 100% in each case. Also, the remaining binding at 1 µM was found to be 65% in test [19]; 89% in test [20]; 82% in test [21]; 69% in test [22]; 100% in [23]; 100% in test [24].
